Measured values taken from patent US11696913B2, “Prolonged ectoparasite-controlling agent for animal” (MITSUI CHEMICALS AGRO, INC., priority 2017, dated 2023).

Tests used:
Ctenocephalides felis [1] = assay: In vitro contact test with fleas; settings: read-out: insecticidal activity; for pest or weed control at 0.2 µg/cm2, 0.2 µg/cm2: dose 0.2 μg/cm^2, dead or moribund fleas after 48 h; for pest or weed control at 1 µg/cm2, 1 µg/cm2: dose 1 μg/cm^2, dead or moribund fleas after 48 h; for pest or weed control at 0.04 µg/cm2, 0.04 µg/cm2: dose 0.04 μg/cm^2, dead or moribund fleas after 48 h
Summary of the method: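 Activity is the percentage of fleas dead or moribund at 48 h, judged by immobility or uncoordinated movement after tapping. Tubes were coated by evaporating acetone solutions (900 ppm gives 5 μg/cm^2), then held 5-10 adult fleas of both sexes at room temperature and ambient humidity.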

Ctenocephalides felis [2] = assay: Ctenocephalides felis in-vitro feeding test with fleas (CTECFE oral); settings: 48 hours, read-out: insecticidal feeding activity; for pest or weed control at 4 ppm: dose 4 ppm in citrated cattle blood; for pest or weed control at 0.8 ppm: dose 0.8 ppm in citrated cattle blood; for pest or weed control at 0.032 ppm: dose 0.032 ppm in citrated cattle blood; for pest or weed control at 0.16 ppm: dose 0.16 ppm in citrated cattle blood
Summary of the method: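 Scored as percent fleas killed (0–100%) 48 hours after feeding began. Compound, dissolved in DMSO and diluted into citrated cattle blood, was offered via a parafilm membrane to roughly 20 adult male and female C. felis at about 37° C.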

Spodoptera litura = assay: Insecticidal testing against common cutworm; format: in vivo; settings: foliar, 144 h, concentration 100 ppm, cabbage leaf dip, second-stage larvae, after 6 days, read-out: pesticidal rate
Text: Insecticidal Testing Against Common Cutworm (Spodoptera litura)

Plutella xylostella = assay: Insecticidal testing against diamondback moth; format: in vivo; settings: foliar, 144 h, concentration 100 ppm, cabbage leaf dip, third-stage larvae, after 6 days, read-out: pesticidal rate
Text: Insecticidal Testing Against Diamondback Moth (Plutella xylostella)

[3] = tested on: Rhipicephalus (Boophilus) microplus; assay: In vitro injection test with Rhipicephalus (Boophilus) microplus (BOOPMI Inj); settings: 168 h, laid fertile eggs after 7 days, read-out: acaricidal activity; for pest or weed control at 0.00016 mg: dose 0.16 μg/animal injected; for pest or weed control at 0.0008 mg: dose 0.8 μg/animal injected
Summary of the method: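 Five engorged adult females each get a 1 μl abdominal injection of compound dissolved and diluted in DMSO. Kept 7 days at 28° C./85% rel. hum.; percent activity rates egg laying and egg fertility (0% all fertile, 100% none laid or infertile).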

Laodelphax striatellus = assay: Insecticidal testing against small brown planthopper; format: in vivo; settings: 144 h, concentration 100 ppm, sprayed rice seedlings, after 6 days, read-out: pesticidal rate
Protocol: Insecticidal Testing Against Small Brown Planthopper (Laodelphax striatellus)
An additional test was carried out with 10 small brown planthoppers by preparing an acetone solution of the testing compound diluted to a predetermined concentration, spraying the solution onto rice seedlings and air drying the rice seedlings. The medicament was all used as received. The rice seedlings were placed in a constant-temperature room at 25° C., and the survival rate was investigated after 6 days. The test was carried out by means of one group of 10 pests.

Ctenocephalides felis [4] = assay: Systemic treatment in-vivo test with cat flea on rats; settings: intraperitoneal injection, 5 mg/kg
Protocol: Systemic Treatment In-Vivo Test with American Dog Tick Nymph and Cat Flea on Rats
Type of study and overall study design: The method is a randomized non-blinded efficacy study in accordance with European animal welfare requirements. Rats (Rattus norvegicus) were randomized based on pre-treatment flea counts. The efficacy of treatment was determined by comparison of the flea and tick counts of different treatment groups versus the placebo-treated control group. The experimental unit was the individual study animal. Method and route of administration: The compound was applied in a suitable solvent and carrier (more specifically, added to glycerol formal; in case of poorly soluble compounds, a solvent mixture with up to 25% by volume of N-methyl pyrrolidone may be used.) considering the individual body weight as an intraperitoneal injection.
Experimental infestation: On the day of treatment and weekly thereafter, 30 ticks (D. variabilis nymphs) were released onto the back of each rat, and 30 fleas (C. felis) were released onto the back of each rat 24 h later.
Tick and Flea counting: Rats were thoroughly examined and ticks and fleas were manually removed 48 h (±4 h) after tick infestation and 24 h after flea infestation. Live fleas and live attached engorged ticks were counted. In non-evident cases, engorgement status was evaluated by squeezing the tick on a filter paper to find traces of blood as sign for engorgement.

SMILES	pest or weed control at 0.2 µg/cm2, 0.2 µg/cm2 (Ctenocephalides felis [1]) [%]	pest or weed control at 1 µg/cm2, 1 µg/cm2 (Ctenocephalides felis [1]) [%]	pest or weed control at 4 ppm (Ctenocephalides felis [2]) [%]	pest or weed control at 100 ppm (Spodoptera litura) [%]	pest or weed control at 100 ppm (Plutella xylostella) [%]	pest or weed control at 0.00016 mg [3] [%]	pest or weed control at 0.0008 mg [3] [%]	pest or weed control at 0.8 ppm (Ctenocephalides felis [2]) [%]	pest or weed control at 100 ppm (Laodelphax striatellus) [%]	pest or weed control at 0.04 µg/cm2, 0.04 µg/cm2 (Ctenocephalides felis [1]) [%]	pest or weed control at 0.032 ppm (Ctenocephalides felis [2]) [%]	pest or weed control at 0.16 ppm (Ctenocephalides felis [2]) [%]	pest or weed control at 0.0064 ppm (Ctenocephalides felis [2]; dose 0.0064 ppm in citrated cattle blood) [%]	pest or weed control at 32 ng ([3]; dose 0.032 μg/animal injected) [%]	Geometric mean percent reduction in live flea (Ctenocephalides felis) counts compared to untreated control rats (Ctenocephalides felis [4]; SD 2) [%]	Geometric mean percent reduction in live flea (Ctenocephalides felis) counts compared to untreated control rats (Ctenocephalides felis [4]; SD 9) [%]	Geometric mean percent reduction in live flea (Ctenocephalides felis) counts compared to untreated control rats (Ctenocephalides felis [4]; SD 16) [%]	Geometric mean percent reduction in live flea (Ctenocephalides felis) counts compared to untreated control rats (Ctenocephalides felis [4]; SD 23) [%]
CN(C(=O)c1ccc2c(c1)OCO2)c1cccc(C(=O)Nc2c(I)cc(C(F)(C(F)(F)F)C(F)(F)F)cc2C(F)(F)F)c1F [Compound 55]	95	95	95	≥ 70	≥ 70	–	–	–	–	–	–	–	–	–	–	–	–	–
CN(C(=O)c1ccc(OC(F)(F)F)cc1)c1cccc(C(=O)Nc2c(I)cc(C(F)(C(F)(F)F)C(F)(F)F)cc2C(F)(F)F)c1F [Compound 61]	95	95	95	≥ 70	≥ 70	100	100	95	≥ 70	–	–	–	–	–	–	–	–	–
CN(C(=O)c1ccc(F)cc1)c1cc(C(=O)Nc2c(Cl)cc(C(F)(C(F)(F)F)C(F)(F)F)cc2C(F)(F)F)ccc1F [Compound 83]	95	95	95	≥ 70	≥ 70	100	100	95	≥ 70	95	95	95	–	–	–	–	–	–
CN(C(=O)c1ccc(C(F)(F)F)nc1C(F)(F)F)c1cccc(C(=O)Nc2c(I)cc(C(F)(C(F)(F)F)C(F)(F)F)cc2C(F)(F)F)c1F [Compound 111]	95	95	95	≥ 70	≥ 70	100	100	95	–	95	95	95	95	–	–	–	–	–
O=C(Nc1cccc(C(=O)Nc2c(I)cc(C(F)(C(F)(F)F)C(F)(F)F)cc2C(F)(F)F)c1F)c1ccc(C(F)(F)F)nc1C(F)(F)F [Compound 112]	–	–	95	≥ 70	≥ 70	–	100	95	–	–	–	95	–	–	–	–	–	–
CN(C(=O)c1cnc(C(F)(F)F)nc1)c1cccc(C(=O)Nc2c(I)cc(C(F)(C(F)(F)F)C(F)(F)F)cc2C(F)(F)F)c1F [Compound 113]	–	–	95	≥ 70	≥ 70	100	100	95	≥ 70	–	95	95	–	100	–	–	–	–
O=C(Nc1cccc(C(=O)Nc2c(I)cc(C(F)(C(F)(F)F)C(F)(F)F)cc2C(F)(F)F)c1F)c1cnc(C(F)(F)F)nc1 [Compound 114]	–	–	95	≥ 70	≥ 70	–	100	95	–	–	–	95	–	–	–	–	–	–
Cc1cc(C2=NOC(c3cc(Cl)cc(Cl)c3)(C(F)(F)F)C2)ccc1C(=O)NCC(=O)NCC(F)(F)F (stereo not shown) [Fluralaner, fluralaner, reference compound]	–	–	–	–	–	–	–	–	–	–	–	–	–	–	100	100	51	7
